Experiments:
T-47D = test: panel of 60 human tumor cell lines, growth inhibition (Breast Cancer); conditions: T-47D
LOX IMVI = test: panel of 60 human tumor cell lines, growth inhibition (Melanoma)
UO-31 = test: panel of 60 human tumor cell lines, growth inhibition (Renal Cancer); conditions: UO-31
SF-268 = test: panel of 60 human tumor cell lines, growth inhibition (CNS Cancer); conditions: SF-268
K-562 = test: panel of 60 human tumor cell lines, growth inhibition (Leukemia); conditions: K-562
SR = test: as above
SNB-19 = test: panel of 60 human tumor cell lines, growth inhibition (CNS Cancer); conditions: SNB-19
SNB-75 = test: as above; conditions: SNB-75
MOLT-4 = test: panel of 60 human tumor cell lines, growth inhibition (Leukemia); conditions: MOLT-4
M14 = test: panel of 60 human tumor cell lines, growth inhibition (Melanoma); conditions: M14

SMILES: C=C1C(=O)O[C@H]2[C@H]1CC/C(COC(=O)N1CCN(C)CC1)=C\CC[C@@]1(C)O[C@@H]21 [JVM 2-44]
- Percent Growth (T-47D; Log10 Concentration −5.0): 23%
- Mean Optical Densities (T-47D; Log10 Concentration −6.0): 1.660
- Percent Growth (T-47D; Log10 Concentration −6.0): 102%
- Mean Optical Densities (T-47D; Log10 Concentration −7.0): 1.593
- Percent Growth (T-47D; Log10 Concentration −7.0): 94%
- Mean Optical Densities (T-47D; Log10 Concentration −8.0): 1.664
- Percent Growth (T-47D; Log10 Concentration −8.0): 102%
- GI50 (LOX IMVI): 12.4 µM
- TGI (LOX IMVI): 2.63E−5
- Mean Optical Densities (LOX IMVI; Log10 Concentration −4.0): 0.051
- Percent Growth (LOX IMVI; Log10 Concentration −4.0): −89%
- Mean Optical Densities (LOX IMVI; Log10 Concentration −5.0): 1.794
- Percent Growth (LOX IMVI; Log10 Concentration −5.0): 64%
- Percent Growth (LOX IMVI; Log10 Concentration −6.0): 96%
- Mean Optical Densities (LOX IMVI; Log10 Concentration −7.0): 2.419
- Percent Growth (LOX IMVI; Log10 Concentration −7.0): 94%
- Mean Optical Densities (LOX IMVI; Log10 Concentration −8.0): 2.424
- Percent Growth (LOX IMVI; Log10 Concentration −8.0): 94%
- GI50 (UO-31): 3.08 µM
- TGI (UO-31): 1.54E−5
- Mean Optical Densities (UO-31; Log10 Concentration −4.0): 0.127
- Percent Growth (UO-31; Log10 Concentration −4.0): −83%
- Mean Optical Densities (UO-31; Log10 Concentration −5.0): 0.983
- Percent Growth (UO-31; Log10 Concentration −5.0): 19%
- Mean Optical Densities (UO-31; Log10 Concentration −6.0): 1.744
- Percent Growth (UO-31; Log10 Concentration −6.0): 80%
- Mean Optical Densities (UO-31; Log10 Concentration −7.0): 1.737
- Percent Growth (UO-31; Log10 Concentration −7.0): 79%
- Mean Optical Densities (UO-31; Log10 Concentration −8.0): 1.731
- Percent Growth (UO-31; Log10 Concentration −8.0): 79%
- GI50 (SF-268): 13.5 µM
- TGI (SF-268): 3.19E−5
- Mean Optical Densities (SF-268; Log10 Concentration −4.0): 0.188
- Percent Growth (SF-268; Log10 Concentration −4.0): −66%
- Mean Optical Densities (SF-268; Log10 Concentration −5.0): 1.432
- Percent Growth (SF-268; Log10 Concentration −5.0): 67%
- Mean Optical Densities (SF-268; Log10 Concentration −6.0): 1.625
- Percent Growth (SF-268; Log10 Concentration −6.0): 97%
- Mean Optical Densities (SF-268; Log10 Concentration −7.0): 1.839
- Percent Growth (SF-268; Log10 Concentration −7.0): 9B
- Mean Optical Densities (SF-268; Log10 Concentration −8.0): 1.843
- Percent Growth (SF-268; Log10 Concentration −8.0): 99%
- GI50 (K-562): 4.25 µM
- TGI (K-562): 2.82E−5
- Mean Optical Densities (K-562; Log10 Concentration −4.0): 0.152
- Percent Growth (K-562; Log10 Concentration −4.0): −25%
- Mean Optical Densities (K-562; Log10 Concentration −5.0): 0.394
- Percent Growth (K-562; Log10 Concentration −5.0): 21%
- Mean Optical Densities (K-562; Log10 Concentration −6.0): 1.109
- Percent Growth (K-562; Log10 Concentration −6.0): 99%
- Mean Optical Densities (K-562; Log10 Concentration −7.0): 1.030
- Percent Growth (K-562; Log10 Concentration −7.0): 91%
- Mean Optical Densities (K-562; Log10 Concentration −8.0): 1.141
- Percent Growth (K-562; Log10 Concentration −8.0): 103%
- GI50 (SR): 2.81 µM
- TGI (SR): 3.33E−5
- Mean Optical Densities (SR; Log10 Concentration −4.0): 0.332
- Percent Growth (SR; Log10 Concentration −4.0): −14%
- Mean Optical Densities (SR; Log10 Concentration −5.0): 0.534
- Percent Growth (SR; Log10 Concentration −5.0): 16%
- Mean Optical Densities (SR; Log10 Concentration −6.0): 1.105
- Percent Growth (SR; Log10 Concentration −6.0): 78%
- Mean Optical Densities (SR; Log10 Concentration −7.0): 1.224
- Percent Growth (SR; Log10 Concentration −7.0): 91%
- Mean Optical Densities (SR; Log10 Concentration −8.0): 1.227
- Percent Growth (SR; Log10 Concentration −8.0): 91%
- GI50 (SNB-19): 19.6 µM
- TGI (SNB-19): 6.35E−5
- Mean Optical Densities (SNB-19; Log10 Concentration −4.0): 0.513
- Percent Growth (SNB-19; Log10 Concentration −4.0): −19%
- Mean Optical Densities (SNB-19; Log10 Concentration −5.0): 1.860
- Percent Growth (SNB-19; Log10 Concentration −5.0): 79%
- Mean Optical Densities (SNB-19; Log10 Concentration −6.0): 2.030
- Percent Growth (SNB-19; Log10 Concentration −6.0): 90%
- Mean Optical Densities (SNB-19; Log10 Concentration −7.0): 2.075
- Percent Growth (SNB-19; Log10 Concentration −7.0): 93%
- Mean Optical Densities (SNB-19; Log10 Concentration −8.0): 2.149
- Percent Growth (SNB-19; Log10 Concentration −8.0): 97%
- GI50 (SNB-75): 7.65 µM
- TGI (SNB-75): 2.40E−5
- Mean Optical Densities (SNB-75; Log10 Concentration −4.0): 0.183
- Percent Growth (SNB-75; Log10 Concentration −4.0): −76%
- Mean Optical Densities (SNB-75; Log10 Concentration −5.0): 1.112
- Percent Growth (SNB-75; Log10 Concentration −5.0): 47%
- Mean Optical Densities (SNB-75; Log10 Concentration −6.0): 1.330
- Percent Growth (SNB-75; Log10 Concentration −6.0): 76%
- Mean Optical Densities (SNB-75; Log10 Concentration −7.0): 1.274
- Percent Growth (SNB-75; Log10 Concentration −7.0): 68%
- Mean Optical Densities (SNB-75; Log10 Concentration −8.0): 1.343
- Percent Growth (SNB-75; Log10 Concentration −8.0): 78%
- GI50 (MOLT-4): 5.49 µM
- TGI (MOLT-4): 3.43E−5
- Mean Optical Densities (MOLT-4; Log10 Concentration −4.0): 0.453
- Percent Growth (MOLT-4; Log10 Concentration −4.0): −30%
- Mean Optical Densities (MOLT-4; Log10 Concentration −5.0): 1.062
- Percent Growth (MOLT-4; Log10 Concentration −5.0): 35%
- Mean Optical Densities (MOLT-4; Log10 Concentration −6.0): 1.734
- Percent Growth (MOLT-4; Log10 Concentration −6.0): 92%
- Mean Optical Densities (MOLT-4; Log10 Concentration −7.0): 1.794
- Percent Growth (MOLT-4; Log10 Concentration −7.0): 98%
- Mean Optical Densities (MOLT-4; Log10 Concentration −8.0): 1.889
- Percent Growth (MOLT-4; Log10 Concentration −8.0): 106%
- GI50 (M14): 8.89 µM
- TGI (M14): 2.58E−5
- Mean Optical Densities (M14; Log10 Concentration −4.0): 0.178
- Percent Growth (M14; Log10 Concentration −4.0): −68%
- Mean Optical Densities (M14; Log10 Concentration −5.0): 1.229
- Percent Growth (M14; Log10 Concentration −5.0): 48%
- Mean Optical Densities (M14; Log10 Concentration −6.0): 1.877
- Percent Growth (M14; Log10 Concentration −6.0): 94%
- Mean Optical Densities (M14; Log10 Concentration −7.0): 1.848
- Percent Growth (M14; Log10 Concentration −7.0): 91%
- Mean Optical Densities (M14; Log10 Concentration −8.0): 1.953
- Percent Growth (M14; Log10 Concentration −8.0): 99%
